“And” between values parts separate entries of the source, which are not always exact repeats. Equal values may be shown once. “Also recorded” adds a separate entry of the source.
Key:
BamA–BamD interaction = assay: FRET-based determination of apparent affinity of BamA, BamD and their variants / FRET pairs in living E. coli cells; type: cell-based; settings: BamA-mNeonGreen–BamD-mScarlet-I, n = 5 biological replicates (Figure 3c)
Text: E. coli Stellar (F−, endA1, supE44, thi-1, recA1, relA1, gyrA96, phoA, Φ80d lacZΔ M15, Δ(lacZYA-argF) U169, Δ(mrr-hsdRMS-mcrBC), ΔmcrA, λ−) was used for plasmid construction. E. coli BL21 (B, F^−, gal, dcm, Ion, hsdSB(rB^− mB^−), [malB^+]K-12(λ^S)) was used for expression of all fusion proteins and subsequent flow cytometric analysis. Plasmids were constructed by ligation free cloning using the InFusion™ cloning kit (Clonetech, San Jose, CA, USA) according to the manufacturer’s instructions, based on plasmid backbones described earlier. Details on the determinants and the construction of each of the used plasmids is given in the Supplementary Information (Supplementary Table S1 and Supplementary Text S1). Oligonucleotides used in their constructions are listed in Supplementary Table S2. Single-point mutations were introduced with the InFusion™ cloning kit. Oligonucleotides used are listed in Supplementary Table S2.
(§1) At the start of each experiment, E. coli BL21 cells were transformed with the corresponding plasmids, spread onto lysogeny broth-miller (LB)-agar plates with 50 µg/mL kanamycin (≥750 I.U./mg) or carbenicillin (purity: ≥88%) and grown over night. It turned out to be crucial to use freshly transformed cells for each experiment. Keeping the cells on agar plates for more than two days or cryoconservation of the cells led to an increase in the variability of the determined parameters Ka^app., z and Fmax. The following day, after transformation of the cells, 1 mL of LB medium with 50 µg/mL of the corresponding antibiotic in a 48-well plate was inoculated with a single colony and cultivated overnight (16 h) at 37 °C and 200 rpm. For protein production, M9 mineral medium was used, in which glucose was substituted by 1% (m/m) glycerol (purity: ≥99%) as the carbon source. A quantity of 200 µL of M9 medium in a 96-well plate was inoculated with 2 µL of the overnight culture and cultivated at 28 °C and 200 rpm for 6 h. Then, gene expression was induced with 1 mM L-rhamnose (purity: ≥98%), and afterwards an additional 2 h of cultivation with 0.2% (m/V) arabinose (purity: ≥99%). Cells that carried a plasmid that only contained one promotor were only treated with the corresponding inductor. Following induction of gene expression, cells were cultivated for an additional 16 h at 28 °C and 200 rpm. Cells were subsequently washed with PBS three times and then directly analyzed by flow cytometry.
(§2) A FACS Aria III flow cytometer (BD Bioscience, Franklin Lages, NJ, USA) with a 70 microns nozzle was used to analyze all cells. A three-channel method was used to measure the donor channel (mNeonGreeen), the acceptor channel (mScarlet-I) and the FRET channel. To measure the mNeonGreen fluorescence, an excitation wavelength of 488 nm and emission wavelength filters of 530/30 nm (band-pass) and 502 nm (long-pass) were used. mScarlet-I fluorescence was excited at 561 nm and measured with emission wavelength filters of 610/20 nm (band-pass) and 600 nm (long-pass). The FRET channel was measured with an excitation wavelength of 488 nm and emission filters of 610/20 nm (band-pass) and 600 nm (long-pass). A maximum of 10,000 cells per second were analyzed. FACSDiva™ Software (BD Bioscience, Franklin Lages, NJ, USA, version 8.0) was used for gating data analysis. For cells only expressing one fluorophore, 50,000 cells per sample were analyzed. […] A total of 50,000 cells inside the Q2 gate were analyzed. Examples are shown in Supplementary Figure S2. Cells at the edge of the plot were excluded during calculation of DFRET values and relative donor/acceptor concentrations.
Data points of all cells inside the analysis gate (Q2), as described in 2.4, were exported as FCS files using FACSDiva™ Software (BD Bioscience, Franklin Lages, NJ, USA, version 8.0). A custom Python program employing the FlowKit was subsequently used to convert the FCS formatted data into tab-delimited txt format. […]

gram-negative bacteria = settings: in vitro; cited from earlier work
Text: (§3) Resistance against known antibiotics is progressively spreading. Therefore, new antibacterial entities are urgently needed. […] The β-barrel assembly ...

[1] = test system: interaction between BamA and BamD; settings: yeast two hybrid high throughput screening; cited from earlier work
Text: as §3

outer membrane = settings: cited from earlier work
Text: Resistance against known antibiotics is progressively spreading. Therefore, new antibacterial entities are urgently needed. […] The β-barrel assembly ... || The interaction between BamA and BamD is essential for the correct function of the BAM complex. BamE has been reported to stabilize the interaction between BamA and BamD [29]. In this work, BamE was not overexpressed alongside the fluorophore-labeled BamA and BamD fusion proteins. It is therefore unclear to what extent chromosomal-encoded BamE stabilized the complex between fluorophore-labelled BamA and BamD. It is also possible that the interaction measured between BamA and BamD was not affected by BamE at all, due to the low amount of BamE present in comparison to the plas ...

BamA = settings: cited from earlier work
Text: Resistance against known antibiotics is progressively spreading. Therefore, new antibacterial entities are urgently needed. According to the WHO, new antibiotics against gram-negative bacteria are in particular need. Common mechanisms of antibiotic resistance in gram-negative bacteria include changes in membrane and cell-wall permeability, biofilm formation, the production of efflux pumps and beta-lactamases, as well as mutation of typical targets. […] The β-barrel assembly ...

clinical isolates = settings: several clinical isolates; cited from earlier work
Text: as §3

Pseudomonas aeruginosa = settings: cited from earlier work
Text: Mori et al. identified a peptide sequence (FIRL) that was highly conserved across BamD homologues in a wide variety of gram-negative bacteria. […] When the peptide was identified by Mori et al., no crystal structure of the BAM complex was available. When we located the amino acids of the FIRL peptide in the crystal structure of BamD, it turned out that only two of the four amino acids, R97 and L98, appeared to interact with BamA at site 2 (Figure 3c). The sidec ... || The interaction between BamA and BamD is essential for the correct function of the BAM complex. BamE has been reported to stabilize the interaction between BamA and BamD [29]. In this work, BamE was not overexpressed alongside the fluorophore-labeled BamA and BamD fusion proteins. It is therefore unclear to what extent chromosomal-encoded BamE stabilized the complex between fluorophore-labelled BamA and BamD. It is also possible that the interaction measured between BamA and BamD was not affected by BamE at all, due to the low amount of BamE present in comparison to the plas ...

[2] = test system: interaction between BamA and BamD (BamA-mNeonGreen and BamD-mScarlet-I); assay: FRET-based BamA–BamD interaction assay in living E. coli cells (flow cytometry), peptide treatment; type: cell-based; settings: for Ka^app. of the BamA–BamD interaction after peptide treatment: cells incubated 3 h in water, z and Fmax kept constant, n = 5 biological replicates, untreated control in the RFIRLN experiment Ka^app. = 3.08 × 10^−4; for inhibition of the interaction between BamA and BamD (in words): living bacterial cells, 500 µM and 2.5 mM peptide, 3 h in water
Protocol: as §1, §2
Data points of all cells inside the analysis gate (Q2), as described in 2.4, were exported as FCS files using FACSDiva™ Software (BD Bioscience, Franklin Lages, NJ, USA, version 8.0). A custom Python program employing the FlowKit was subsequently used to convert the FCS formatted data into tab-delimited txt format.
Calculation of the DFRET and calculation of the relative concentration of the acceptor and donor from the flow cytometric data were performed as described by Hochreiter et al.. Cells with an RFU ≥ 250,000 were excluded from further analysis. Fitting of a binding model based on the law of mass actions to the data was also performed as described by Hochreiter et al.. The binding model used here (Equation (1)) fits the affinity (Ka^app), the stoichiometry (z) and the maximum FRET (Fmax) of a complex. To do so, the relative donor and acceptor concentration, as well as the DFRET, of a large number of cells with different expression levels has to be known. All other equations used for the calculations are described in Supplementary Text S1 for clarity. The FRET-efficiency of the donor- acceptor tandem, needed for the calculations, was determined by spectral unmixing according to Alexeeva et al. to be 0.43 [42]. […]

bacterial growth = assay: inhibition of bacterial growth by the peptides; type: cell-based, E. coli; settings: up to a concentration of 2.5 mM
[3] = M9 medium or PBS; not soluble at concentrations above 1 mM
Protocol: Peptides (RFIRLN and […]) were synthesized by Genicbio with a purity of >95%. For treatment with the peptides, cells were grown as described above. […] Cells not treated with the peptide were also incubated in water for 3 h and used as a control for all experiments involving the peptides.

[4] = biological target: BamA-mNeonGreen (C-terminal fusion of mNeonGreen to BamA) (E. coli) (UniProt P0A940); assay: FRET or BRET; flow cytometry (three channels) of living E. coli BL21 co-expressing the mNeonGreen (donor) and mScarlet-I (acceptor) fusions from one plasmid; cells washed with PBS; binding model (law of mass action) fitted to DFRET and relative concentrations with Ka app, z and Fmax all as free parameters; apparent; five replicates on each of three days
[5] = biological target: mNeonGreen-BamA (N-terminal fusion of mNeonGreen to BamA) (E. coli) (UniProt P0A940); assay: as above
[6] = interaction site 2 variants, z = 1, Fmax = 0.36 constant
[7] = interaction site 1 variants, z and Fmax constant

BamD^R97A: BamD variant
Ka^app. (BamA–BamD interaction; [6]): 6.23 × 10^−5

COC(=O)c1c(NC(=O)c2ccc([N+](=O)[O-])o2)sc2c1CCN(C(C)C)C2 [IMB-H4]
antibacterial activity (gram-negative bacteria): showed antibacterial activity in vitro | inhibition of the interaction between BamA and BamD [1]: shown to inhibit the interaction between BamA and BamD | permeabilization of the OM (outer membrane): shown to permeabilize the OM | binding to BamA (BamA; no specific interaction site known): binds to BamA

BamD^N99A: BamD variant
Ka^app. (BamA–BamD interaction; [6]): 6.57 × 10^−5

E183A: BamD variant
Ka^app. (BamA–BamD interaction; [7]): 7.2 × 10^−5

BamD^E187A: BamD variant
Ka^app. (BamA–BamD interaction; [7]): 7.82 × 10^−5

darobactin
antimicrobial activity (clinical isolates): antimicrobial activity against several clinical isolates | effect on insertion of BamA client proteins into the outer membrane (BamA): prevents the insertion of BamA client proteins into the outer membrane

V181A: BamD variant
Ka^app. (BamA–BamD interaction; [7]): 6.66 × 10^−5

BamD^Y184A: BamD variant
Ka^app. (BamA–BamD interaction; [7]): 5.27 × 10^−5

BamD^L98A: BamD variant
Ka^app. (BamA–BamD interaction; [6]): 6.58 × 10^−5

FIRL [peptide derived from BamD, Mori et al]
effect on outer membrane integrity / membrane permeability (outer membrane): cause membrane permeability in treated cells; also recorded: shown to interfere with outer membrane integrity | bacteriostatic or bactericidal effects (Pseudomonas aeruginosa): did not show any bacteriostatic or bactericidal effects | potentiation of antibiotics (Pseudomonas aeruginosa): potentiated the effect of antibiotics; also recorded: potentiate the activity of antibiotics

RFIRLN
Ka^app. of the BamA–BamD interaction after peptide treatment ([2]; 500 µM peptide): 1.95 × 10^−4 | Ka^app. of the BamA–BamD interaction after peptide treatment ([2]; 2.5 mM peptide): 7.48 × 10^−5 | inhibition of the interaction between BamA and BamD (in words) [2]: inhibit the interaction between BamA and BamD in a dose-dependent manner in the upper micromolar range; also recorded: a clear dose-dependent effect was observed; also recorded: shown to inhibit binding of BamA to BamD in living cells | inhibition of bacterial growth (bacterial growth): no inhibition of bacterial growth was detected up to a concentration of 2.5 mM | solubility [3]: ≤ 1000 µM

BamD^Y184F: BamD variant
Ka^app. (BamA–BamD interaction; [7]): 6.22 × 10^−5

VAEYYTER
Ka^app. of the BamA–BamD interaction after peptide treatment ([2]; 500 µM peptide): 1.75 × 10^−4 | Ka^app. of the BamA–BamD interaction after peptide treatment ([2]; 2.5 mM peptide): 1.03 × 10^−4 | inhibition of the interaction between BamA and BamD (in words) [2]: inhibit the interaction between BamA and BamD in a dose-dependent manner in the upper micromolar range; also recorded: a clear dose-dependent effect was observed; also recorded: able to disrupt the binding of BamD to BamA in living cells in high micromolar concentrations | inhibition of bacterial growth (bacterial growth): no inhibition of bacterial growth was detected up to a concentration of 2.5 mM

BamD^R94A: BamD variant
Ka^app. (BamA–BamD interaction; [6]): 5.47 × 10^−5

BamD-mScarlet-I (C-terminal fusion of mScarlet-I to BamD) (from UniProt P0AC02 20-245) (natural protein)
stoichiometry N [4]: 1.3 and 1.6 and 1.2 | stoichiometry N [5]: 0.7 and 1.1

BamD^Y185A: BamD variant, Y185 mutated to alanine
Ka^app. (BamA–BamD interaction; [7]): 6.22 × 10^−5

From PMC11592675, “Förster Resonance Energy Transfer Measurements in Living Bacteria for Interaction Studies of BamA with BamD and Inhibitor Identification” (Cells, 2024)
